Laboratory results published in US20200277301A1 (ALFASIGMA S.P.A., priority 2005, published 2020).

Columns and labels:
[1] = in vivo; design: species or system Beagle female dogs; conditions: female, Beagle, dog, po, 100 mg/kg
Procedure: Eight pure-bred Beagle females dogs having 20 weeks of age and weighing between 5.0 and 7.5 kg have been divided into two groups of four.
Each sample has been transferred into a tube containing heparin as anticoagulant and has been centrifuged; the plasma has been divided into two aliquots, each of 500 μl, and has been frozen at −20° C.
Tmax=time at which the Cmax is reached;
AUC=area under the concentration-time curve calculated through the linear trapezoidal rule.

[2] = Hygroscopicity of the polymorphous forms; assay type: physicochemical; conditions: absorb water in a reversible way under suitable pressure and ambient humidity
Source text: Both the forms δ and ε of the rifaximin are hygroscopic, they absorb water in a reversible way during the time in the presence of suitable conditions of pressure and humidity in the ambient and are susceptible of transformation to other forms.

CO[C@H]1/C=C/O[C@@]2(C)Oc3c(C)c(O)c4c(O)c(c5c(nc6cc(C)ccn65)c4c3C2=O)NC(=O)/C(C)=C\C=C\[C@H](C)[C@H](O)[C@@H](C)[C@@H](O)[C@@H](C)[C@H](OC(C)=O)[C@@H]1C [Polymorph ε, rifaximin]
AUC0-24 Mean [1]: 42 ng·h/mL
Cmax Mean [1]: 6.86 ng/mL
Tmax [1]: 4 h
hygroscopicity (in words) [2]: hygroscopic

CO[C@H]1/C=C/O[C@@]2(C)Oc3c(C)c(O)c4c(O)c(c5c(nc6cc(C)ccn65)c4c3C2=O)NC(=O)/C(C)=C\C=C\[C@H](C)[C@H](O)[C@@H](C)[C@@H](O)[C@@H](C)[C@H](OC(C)=O)[C@@H]1C [Polymorph δ, rifaximin]
AUC0-24 Mean [1]: 801 ng·h/mL
Cmax Mean [1]: 308.31 ng/mL
Tmax Mean [1]: 2 h
Cmax ([1]; Cmax): 308 ng/mL
hygroscopicity (in words) [2]: hygroscopic
